# Source: patent publication US12257264B2, “Combination therapy for HIV with adenosine derivative and capsid inhibitors” (Brii Biosciences, Inc., priority 2021, dated 2025)
# Several values for one entry are separate records, joined by “and”; a condition that tells them apart may be missing. Equal entries are not always repeated.
# Assay: Plasma exposures following IV infusion alone or in combination to Sprague-Dawley rats
# Method: The pharmacokinetics of EFdA and prodrug formula 4-A, as well as lenacapavir were studied in rats after IV infusion administration alone or in combination at a dose of 1.0 mg/kg each.
# Formulations: The prodrugs and lenacapavir were formulated alone or in combination as solutions at 1.0 mg/mL each in 20% […], 10% Solutol aqueous solution within 0.5 hour prior to dose.
# Dose Administration and Sample Collection: The in-life phase of this study was conducted at the WuXi Apptec (WuXi) at Shanghai, China in accordance with the WuXi Institutional Animal Care and Use Committee (IACUC) standard animal procedures along with the IACUC guidelines that are in compliance with the Animal Welfare Act, the Guide for the Care and Use of Laboratory Animals. and was approved by the IACUA Committee. Male Sprague-Dawley rats (0.262+/−0.019 kg) were used for the studies. Each drug was administered as a single dose by 30-min IV infusion (1 ml/kg) alone or in combination. Plasma samples were collected at 0 (pre-dose), 5, 10, 15 and 30 min, 1, 2, 4, 7, 12 and 24 h post-dose. Blood (approximately 0.1 mL) was processed immediately for plasma by centrifugation at 3,200 g at 4° C. for 10 min within half an hour of collection. Plasma samples were frozen and maintained at −70° C. until analyzed. To stabilize the prodrug at the sample collection and subsequent analysis, the following stabilizing reagents were added to the blood collection K2EDTA tubes on wet ice prior to sample collection: for each 100 mL of blood, 10 mL of premade inhibitor cocktail consists of 600 mM Citric Acid, 400 mM PMSF, 400 mM NaF, and 400 mM Dichlorvos.
# Determination of EFdA and Prodrugs in plasma: Briefly, plasma (20 μL) was mixed with 100 l acetonitrile to precipitate protein. Consistent with sample collection procedure, the same cocktail protocol was also added to stabilize the prodrug in the standard and QC samples.
# Bioanalysis: A Sciex API-6500 Plus triplequadrupole mass spectrometer coupled with a Waters Acquity UPLC system (Framingham, MA 01701) was used for quantitative analysis of plasma samples. The column was a Waters HSS T3 column (2.1×50 mm, 1.8 micrometer). The mobile phases used were: A, 0.1% formic acid in water; B, 0.1% formic acid in acetonitrile. For the analysis of EFdA and prodrugs in plasma, the flow rate was 0.6 mL/min with a total run time of 2.0 min. […] Detection of the prodrug and EFdA were achieved using positive ion electrospray mass spectroscopic mode using unit resolution mode. Multiple reaction monitoring (MRM) modes were used to quantify both prodrug and EFdA, e.g. the MRM transition for EFdA was 294.0-154.2 Da, and the transition for prodrug 4-A was 449.3-164.9 Da. For the analysis of lenacapavir in plasma, the flow rate was 0.7 mL/min with a total run time of 1.5 min. The HPLC gradient was initiated at 95% A/5% B for 0.50 min, followed by linear gradient increase to […] over the next 0.2 min; the gradient was subsequently maintained at 100% of mobile B over the next 0.7 min before ramping down to 95% mobile phase A within the following 0.1 min. Detection of lenacapavir was achieved using positive ion electrospray mass spectroscopic mode using unit resolution mode. Multiple reaction monitoring (MRM) modes were used to quantify lenacapavir, e.g. the MRM transition for lenacapavir was 968.1-869.4 Da. Peak areas were integrated by the Sciex program Analyst®, version 1.6.3, operating on a Windows 7 computer where concentrations were determined by a weighted (1/x2) linear regression of peak area ratios (peak area of EFdA/peak area of corresponding IS) versus the nominal concentrations of the plasma calibration standards. Calculations were performed on unrounded numbers. Overall, Analyst® determined the precision and accuracy for the calibration standards and QC samples.
# [1] = Prodrug formula 4-A IV infusion 1.0 mg/kg alone, 4.00 hrs, individual animals
# [2] = Prodrug formula 4-A IV infusion 1.0 mg/kg alone, 7.00 hrs, individual animals
# [3] = Prodrug formula 4-A IV infusion 1.0 mg/kg alone, 12.0 hrs, individual animals
# [4] = Prodrug formula 4-A IV infusion 1.0 mg/kg alone, 24.0 hrs, individual animals
# [5] = Prodrug formula 4-A IV infusion 1.0 mg/kg with Lenacapavir, 7.00 hrs, individual animals
# [6] = Prodrug formula 4-A IV infusion 1.0 mg/kg with Lenacapavir, 12.0 hrs, individual animals
# [7] = Prodrug formula 4-A IV infusion 1.0 mg/kg with Lenacapavir, 24.0 hrs, individual animals
# [8] = Prodrug formula 4-A IV infusion 1.0 mg/kg with Lenacapavir, 48.0 hrs, individual animals
# [9] = Prodrug formula 4-A IV infusion 1.0 mg/kg with Lenacapavir, 72.0 hrs, individual animals
smiles,measurement,setting,value
"C#C[C@]1(COC(=O)OCc2oc(=O)oc2C)O[C@@H](n2cnc3c(N)nc(F)nc32)C[C@@H]1O [Formula 4-A, ((2R,3S,5R)-5-(6-amino-2-fluoro-9H-purin-9-yl)-2-ethynyl-3-hydroxytetrahydrofuran-2-yl)methyl ((5-methyl-2-oxo-1,3-dioxol-4-yl)methyl) carbonate]",Prodrug formula 4A Concentrations in Rat Plasma When Dosed alone,"Prodrug formula 4-A IV infusion 1.0 mg/kg alone, 0.0830 hrs, individual animals",BQL
same,Prodrug formula 4A Concentrations in Rat Plasma When Dosed alone,"Prodrug formula 4-A IV infusion 1.0 mg/kg alone, 0.167 hrs, individual animals",BQL
same,Prodrug formula 4A Concentrations in Rat Plasma When Dosed alone,"Prodrug formula 4-A IV infusion 1.0 mg/kg alone, 0.250 hrs, individual animals",BQL
same,Prodrug formula 4A Concentrations in Rat Plasma When Dosed alone,"Prodrug formula 4-A IV infusion 1.0 mg/kg alone, 0.500 hrs, individual animals",BQL
same,Prodrug formula 4A Concentrations in Rat Plasma When Dosed alone,"Prodrug formula 4-A IV infusion 1.0 mg/kg alone, 1.00 hrs, individual animals",BQL
same,Prodrug formula 4A Concentrations in Rat Plasma When Dosed alone,"Prodrug formula 4-A IV infusion 1.0 mg/kg alone, 2.00 hrs, individual animals",BQL
same,EFdA Concentrations in Rat Plasma When Dosed Alone,[1],BQL
same,Prodrug formula 4A Concentrations in Rat Plasma When Dosed alone,[1],BQL
same,EFdA Concentrations in Rat Plasma When Dosed Alone,[2],BQL
same,Prodrug formula 4A Concentrations in Rat Plasma When Dosed alone,[2],BQL
same,EFdA Concentrations in Rat Plasma When Dosed Alone,[3],BQL
same,Prodrug formula 4A Concentrations in Rat Plasma When Dosed alone,[3],BQL
same,EFdA Concentrations in Rat Plasma When Dosed Alone,[4],BQL
same,Prodrug formula 4A Concentrations in Rat Plasma When Dosed alone,[4],BQL
same,Prodrug formula 4A Concentrations in Rat Plasma When Dosed with Lenacapavir,"Prodrug formula 4-A IV infusion 1.0 mg/kg with Lenacapavir, 0.0830 hrs, individual animals",1.37 ng/mL and 5.19 ng/mL and 1.54 ng/mL and 2.80 ng/mL
same,Prodrug formula 4A Concentrations in Rat Plasma When Dosed with Lenacapavir,"Prodrug formula 4-A IV infusion 1.0 mg/kg with Lenacapavir, 0.167 hrs, individual animals",BQL
same,Prodrug formula 4A Concentrations in Rat Plasma When Dosed with Lenacapavir,"Prodrug formula 4-A IV infusion 1.0 mg/kg with Lenacapavir, 0.250 hrs, individual animals",1.13 ng/mL and BQL (2×) and 2.38 ng/mL
same,Prodrug formula 4A Concentrations in Rat Plasma When Dosed with Lenacapavir,"Prodrug formula 4-A IV infusion 1.0 mg/kg with Lenacapavir, 0.500 hrs, individual animals",BQL
same,Prodrug formula 4A Concentrations in Rat Plasma When Dosed with Lenacapavir,"Prodrug formula 4-A IV infusion 1.0 mg/kg with Lenacapavir, 1.00 hrs, individual animals",BQL
same,Prodrug formula 4A Concentrations in Rat Plasma When Dosed with Lenacapavir,"Prodrug formula 4-A IV infusion 1.0 mg/kg with Lenacapavir, 2.00 hrs, individual animals",BQL
same,Prodrug formula 4A Concentrations in Rat Plasma When Dosed with Lenacapavir,"Prodrug formula 4-A IV infusion 1.0 mg/kg with Lenacapavir, 4.00 hrs, individual animals",BQL
same,EFdA Concentrations in Rat Plasma When Dosed with Lenacapavir,[5],BQL
same,Prodrug formula 4A Concentrations in Rat Plasma When Dosed with Lenacapavir,[5],BQL
same,EFdA Concentrations in Rat Plasma When Dosed with Lenacapavir,[6],BQL
same,Prodrug formula 4A Concentrations in Rat Plasma When Dosed with Lenacapavir,[6],BQL
same,EFdA Concentrations in Rat Plasma When Dosed with Lenacapavir,[7],BQL
same,Prodrug formula 4A Concentrations in Rat Plasma When Dosed with Lenacapavir,[7],BQL
same,EFdA Concentrations in Rat Plasma When Dosed with Lenacapavir,[8],BQL
same,Prodrug formula 4A Concentrations in Rat Plasma When Dosed with Lenacapavir,[8],BQL
same,EFdA Concentrations in Rat Plasma When Dosed with Lenacapavir,[9],BQL
same,Prodrug formula 4A Concentrations in Rat Plasma When Dosed with Lenacapavir,[9],BQL
same,concentration at 0.25 h,"male, Sprague-Dawley, rat, in vivo, 1 mg/kg, Prodrug formula 4A Concentrations in Rat Plasma When Dosed alone, Prodrug formula 4-A IV infusion 1.0 mg/kg alone, 0.250 hrs, individual animals",2.27 ng/mL
same,concentration at 0.083 h,"male, Sprague-Dawley, rat, in vivo, Prodrug formula 4A Concentrations in Rat Plasma When Dosed with Lenacapavir, Prodrug formula 4-A IV infusion 1.0 mg/kg with Lenacapavir, 0.0830 hrs, Mean",2.73 ng/mL
same,concentration at 0.25 h,"male, Sprague-Dawley, rat, in vivo, Prodrug formula 4A Concentrations in Rat Plasma When Dosed with Lenacapavir, Prodrug formula 4-A IV infusion 1.0 mg/kg with Lenacapavir, 0.250 hrs, Mean",1.76 ng/mL
same,Prodrug detected in the systemic circulation,"rats, in the absence and presences of lenacapavir",minimal prodrug detected in the systemic circulation
